Test results as given in US20200282009A1, “METHODS OF TREATING DISEASES ASSOCIATED WITH VASCULAR SMOOTH MUSCLE CELL PROLIFERATION” (BioLineRx Ltd., priority 2017, published 2020).
[ ]: non-standard residue; d: D form. The star is where a group is joined. Benzoyl(4-F) = O=C(c1ccc(F)cc1)*; Cit = NC(=O)NCCC[C@H](N)C(=O)O

Tests used:
SK-N-BE(2) cells = assay: Cell survival assay (PI staining, FACS); assay type: cell-based, human; conditions: BL-8040 0-20 μM or AMD3100 10 and 20 μM, 24 hours
Experimental: (§1) A total of 1×10^5 cells/mL were cultured in 24-well plates with […] RPMI 1640 medium supplemented with 10% FCS. 24 hours later, the medium was changed to RPMI 1640 supplemented with either 1% FCS, with BL-8040 or AMD3100 or ABT199. Then 24 hours later, the cells were harvested, washed, and stained with PI (Sigma). The number of live cells was counted and analyzed using FACS analysis.

Shy-SY5Y cells = assay: Cell survival assay (PI staining, FACS); assay type: cell-based, human; conditions: BL-8040 0-20 μM or AMD3100 10 and 20 μM, 24 hours
Experimental: as §1

SK-N-BE(2)-CXCR4 cells = assay: Cell survival assay (PI staining, FACS); assay type: cell-based, human; conditions: SK-N-BE(2)-CXCR4 vs native cell line; 0, 10 and 20 μM, 24 hours
Experimental: as §1
In order to stably overexpress CXCR4, SK-N-BE(2) cells were transduced with the lentiviral bicistronic vector harboring a CXCR4 expression cassette. This was done using a three-plasmid system: pHR′-CMVCXCR4-IRES-GFP-WPRE; envelope coding plasmid VSV-G and a packaging construct CMVDR8.91 according to previously published protocol (23). For transduction of SK-N-BE(2) cells, 1 ml of viral supernatant was used, which is equivalent to an m.o.i. of ˜9.

[1] = test system: SK-N-BE(2) orthotopic xenograft tumors; assay: In-vivo orthotopic NB model (tumor growth, weight, survival); parameters: species or system NSG mice
Experimental: (§2) Human SK-N-BE(2) cells were orthotopically injected into the left adrenal gland of 6-8 weeks old NSG mice. A 27-gauge needle was introduced through the left adrenal fat pad and 5×10∧5 cells/20 μl PBS were inoculated to the adrenal gland. NSG mice were maintained under defined flora conditions at the Hebrew University Pathogen-Free Animal Facility. Tumor growth and volume were monitored bi-weekly by using T2-weighted MRI until tumors reached the ethical limit volume and mice were randomized to drug-treated or control mice. Mice in the treated group were subjected to 2 treatment protocols. In the first treatment protocol BL-8040 (400 μg) was injected daily, starting three days following inoculation, and was continued for 35 days. In the second treatment protocol mice were monitored for 21 days. As of day 7, mice were treated with a daily injection of BL-8040 (400 μg) for 14 consecutive days.
Magnetic resonance imaging (MRI) scans were performed on a horizontal 4.7T Biospec spectrometer (Bruker Medical) with a 3.5-cm birdcage coil. Mice were anesthetized with Isoflurane (Nicholas Piramal, India; 2% in a mixture of 30:70 O2:N2O). Tumor volume was assessed bi-weekly using T2-weighted (T2W) fast spin echo images (repetition time=2,000 ms; echo time=37 ms; in plane resolution=117 μm; slice thickness-1 mm). Tumor volume was manually assessed using Analyze-7.0 (BIR). For each subject, an exponential growth curve was fitted to the tumor volume data points (Matlab software).
Data are presented as means±SD or ±SE. Statistical comparison of means was performed by a two-tailed unpaired Student's t test. Differences with a P<0.05 were determined as statistically significant. Statistical analysis of NB tumor mice survival following early treatment was performed using the Mantel-cox test.

Ki67, Cyclin D1, BCL-2 = assay: Immunohistochemistry of xenograft tumor sections; assay type: in vivo, NSG mice
Experimental: For histological analysis, tumor tissue was cut into […] sections, deparaffinized with xylene, and hydrated through graded ethanol. Endogenous peroxidase was blocked by incubation for 5 minutes in 3% H2O2. A 25-mM citrate buffer (pH 6.0) was used for antigen retrieval, cooked in a pressure cooker for 20 minutes, and left to cool for 30 minutes at room temperature. Slides were washed in Optimax (Pharmatrade) and incubated with primary Ab diluted in CAS-Block (Zymed Laboratories). For Ki67 1:100 (Thermo Scientific), for CXCR4 anti-human CXCR4 monoclonal antibody clone 12G5 1:100 (R&D), for CXCL12 monoclonal CXCL12 antibody 79018 (R&D), for BCL-2 monoclonal BCL-2 antibody clone 124 (cell marque) and for cyclinD1 monoclonal BCL-1 antibody clone sp4 (spring). Staining overnight at 4° C. For all stainings, a conjugated horseradish peroxidase secondary Ab anti mouse or anti rabbit (Envision; Dako) was used for 30 minutes and developing was done with diaminobenzidine for 5 minutes followed by counterstaining with hematoxylin. For ki67, BCL-2 and Cyclin D1, staining levels were quantified using the Image Pro Analyzer image analysis software.
as §2

[2] = test system: BCL-2, cycD1, pERK in SK-N-BE(2) cells; assay: Western blot analysis of treated cells; assay type: cell-based, human; conditions: 20 μM, 24 hours
Experimental: SK-N-BE(2) cells were seeded into a 12-well plate at 2×10^5/1 ml of medium per well. The cells were incubated for 48 hours and supernatants were collected. For whole cells: tumor samples and cells were lysed by the addition of lysis buffer containing 50 mM Tris-HCl PH 7.6, 150 mM NaCl, 5 mM EDTA pH 8, 0.5% NP40 and protease inhibitor cocktail (Roche Diagnostics). Lysate was incubated with buffer for 15-20 minutes and then centrifuges at 14,000 rpm, 15 min, at 4° C. Protein amounts were determined by Bradford assay (Bio-Rad).
Protein extracts were equally loaded onto 10% SDS-polyacrylamide gel, electrophorized and transferred onto a polyvinylidenedifluoride (PVDF) membrane (Bio-Rad Laboratories). Then, membranes were blocked and incubated with primary specific antibody O.N. at 4° C. For BCL-2 mouse monoclonal (Abcam). For cycD1 rabbit monoclonal (Thermo). For pERK1/2 rabbit monoclonal (Cell signaling). For β-Actin mouse monoclonal (MP biomedicals). After the washing procedure (3 times, 10 min in washing solution), the membrane was incubated with a secondary immunopure HRP-conjugated antibody, anti-mouse or anti rabbit (Envision; Dako) (1/10,000), washed (5 times, 6 min) and detected with the EZ-ECL kit (Biological Industries). Photon emission was identified by ChemiDoc MP imaging system (Bio-Rad). Intensities of protein bands were quantified by computerized densitometry using Image lab software (Bio-Rad).

[3] = test system: BCL-2, cycD1, pERK in Shy-SY5Y cells; assay: Western blot analysis of treated cells; assay type: cell-based, human; conditions: 20 μM, 24 hours
[4] = test system: CXCR4-expressing malignancies; conditions: multiple myeloma, AML, CML, non-small cell lung cancer, metastatic breast cancer; cited from earlier work

4F-benzoyl-Arg-Arg-Nal-Cys-Tyr-Cit-Lys-DLys-Pro-Tyr-Arg-Cit-Cys-Arg-NH2 ({Benzoyl(4-F)}-RR[Nal]CY[Cit]K[dK]PYR[Cit]CR-NH2; not fully specified; printed as 4F-benzoyl-Arg-Arg-Nal-Cys-Tyr-Cit-Lys-DLys-Pro-Tyr-Arg-Cit-Cys-Arg-NH2; cysteine pairing not given here) [BL-8040]
cell viability (viable cells counted) (SK-N-BE(2) cells): decreased viability
cell viability (viable cells counted) (Shy-SY5Y cells): decreased viability
sensitivity to BL-8040 treatment in-vitro (viability) (SK-N-BE(2)-CXCR4 cells): increased sensitivity
reduction in tumor weight ([1]; 400 μg s.c. daily for 14 days from day 7, harvested day 21): 3 fold
survival of animals, average ([1]; 400 μg s.c. daily for 35 days from day 3, controls 35 days): 61 days
tumor growth (tumor volume, MRI) ([1]; 400 μg s.c. daily for 35 days from day 3, exponential growth after discontinuation): tumor growth attenuation
Ki67 staining of tumor sections (Ki67, Cyclin D1, BCL-2; 400 μg daily for 14 days from day 7, compared to controls): reduced Ki67 staining
reduction in Cyclin D1 expression, tumor sections (IHC) (Ki67, Cyclin D1, BCL-2; treated vs control sections, significant): 56%
reduction in BCL-2 staining, tumor sections (IHC) (Ki67, Cyclin D1, BCL-2; treated vs control, staining weak, difference not significant): 36%
BCL-2 protein (western blot) [2]: reduction
ERK phosphorylation (western blot) [2]: decreased ERK phosphorylation
cycD1 protein (western blot) [2]: reduction
BCL-2 protein (western blot) [3]: reduction
ERK phosphorylation (western blot) [3]: decreased ERK phosphorylation
cycD1 protein (western blot) [3]: reduction
effects on CXCR4-expressing malignancies [4]: toxic effects
